In US10591497B2, “Immunoassay for synthetic cannabinoids of the adamantyl indazole/indole-3-carboxamide family” (Randox Laboratories Limited, priority 2014, dated 2020):
Converted amounts (≈) assume the structure as drawn.

Test system: antibody derived from Immunogen of Example 9
Experiment: Competitive immunoassay (ELISA), IC50 derivation and cross-reactivity
Assay type: binding, sheep
Settings: for % CROSS-REACTIVITY: compared to 100% for AKB48; for binding to the antibodies of the invention: "does not bind" = cross-reactivity of less than 2% vs 100% for AKB48 under Example 12 conditions
Experimental: All cross-reactivity are measured herein under the experimental conditions of Example 12 and compared to 100% for AKB48.
IgG is extracted from the antisera and immobilised on a 96 well ELISA plate (coated for 2 hours at +37° C. at 10 ug/ml in a Phosphate Buffered Saline pH7.2). Unbound material is removed by washing with Tris Buffered Saline (TBS) containing tween ([…]) over 10 minutes. Standard AKB48 is added at the concentrations quoted in Table 1, followed by detection agent 1 (FIG. 2) at 1/140 k in a dilution buffer. After incubation (60 mins) at +15 to +25° C. to allow a competition reaction to take place, the microtitre plate is washed with TBS containing Tween™ to remove excess reagents. The enzyme substrate […] (125 μl) is added (Kem-en-Tec Cat. No. 4800). After a 20 minute incubation period to allow maximum colour development, the colour reaction is stopped by the addition of sulphuric acid (0.2M, 120 μl). This produces a colour change from blue to yellow, and the absorbances are read at 450 nm. A standard curve is then constructed and the IC50 calculated as the AKB48 concentration which produces 50% inhibition of maximal signal. This process was repeated for synthetic cannabinoid members as stated in Table 2 to assess cross-reactivity.
The cross-reactivity (CR) was calculated using the equation below. All calculations were based upon binding and displacement at the 50% of maximum OD (optical density) binding point. The maximum OD is the signal generated using tracer alone and 50% displacement (inhibition) corresponds to the IC50. […]
The extent of antibody binding to synthetic cannabinoids of various families was assessed (Table 2). For the cross-reactants with IC50 values, standard curves were derived for each analyte (as per AKB48 and Table 1). […] In all cases, the cross-reactivity set out in Table 2 was measured using an antibody derived from the immunogen of Example 9 and Tracer 1 of Example 10.

[1] = single cross-reactant at 300 ng/ml, Tracer 1 of Example 10

Compound | % CROSS-REACTIVITY [1] | IC50 (Table 2, generated as per AKB48 and Table 1, Tracer 1 of Example 10) | % CROSS-REACTIVITY (standard curve derived for each analyte, Tracer 1 of Example 10) | binding to the antibodies of the invention
O=C(O)c1cn(CC2CCCCC2)c2ccccc12 [3-Carboxyindole metabolite of BB-22] | <1.00% |  |  | 
CCCCCn1cc(C(=O)c2cccc3ccccc23)c2ccc(O)cc21 [JWH-018 6-Hydroxyindole] | <1.00% |  |  | 
CCCCCn1nc(C(=O)NC23CC4CC(CC(O)(C4)C2)C3)c2ccccc21 [3-OH-AKB48, (3-hydroxy-1-adamantyl) 1-pentylindazole-3-carboxamide] |  | 0.18 ng/mL (≈ 0.472 nM) | 1163.53% | 
O=C(c1cccc2ccccc12)c1cn(CCCCCF)c2ccccc12 [AM-2201] | <1.00% |  |  | 
CC1(C)C(C(=O)c2cn(CC3CCOCC3)c3ccccc23)C1(C)C [A-834735] | <1.00% |  |  | 
CCCCCn1cc(C(=O)Cc2ccccc2Cl)c2ccccc21 [JWH-203] | <1.00% |  |  | does not bind
O=C(c1cn(CCCCCO)c2ccccc12)C12CC3CC(CC(C3)C1)C2 [AB001 N-Pentanol] | <1.00% |  |  | do not bind
CCCCCn1cc(C(=O)c2cccc3ccccc23)c2cc(O)ccc21 [JWH-018 5-Hydroxyindole] | <1.00% |  |  | 
O=C(c1cccc2ccccc12)c1cn(CCN2CCOCC2)c2ccccc12 [JWH-200] | <1.00% |  |  | do not bind
